Consider two compounds from ChEMBL document CHEMBL5678818, “Discovery of potent SOS1 inhibitors that block RAS activation via disruption of the RAS-SOS1 interaction” (Proc Natl Acad Sci U S A, 2019).

Usually inhibition stands for the relative decrease from the control value, in per cent. One may read the IC50 as the concentration needed to halve the response being measured.

For assay [1], the target named is T1, Protein kinase C epsilon type (Homo sapiens) (UniProt Q02156).
T1 sequence (whole entry): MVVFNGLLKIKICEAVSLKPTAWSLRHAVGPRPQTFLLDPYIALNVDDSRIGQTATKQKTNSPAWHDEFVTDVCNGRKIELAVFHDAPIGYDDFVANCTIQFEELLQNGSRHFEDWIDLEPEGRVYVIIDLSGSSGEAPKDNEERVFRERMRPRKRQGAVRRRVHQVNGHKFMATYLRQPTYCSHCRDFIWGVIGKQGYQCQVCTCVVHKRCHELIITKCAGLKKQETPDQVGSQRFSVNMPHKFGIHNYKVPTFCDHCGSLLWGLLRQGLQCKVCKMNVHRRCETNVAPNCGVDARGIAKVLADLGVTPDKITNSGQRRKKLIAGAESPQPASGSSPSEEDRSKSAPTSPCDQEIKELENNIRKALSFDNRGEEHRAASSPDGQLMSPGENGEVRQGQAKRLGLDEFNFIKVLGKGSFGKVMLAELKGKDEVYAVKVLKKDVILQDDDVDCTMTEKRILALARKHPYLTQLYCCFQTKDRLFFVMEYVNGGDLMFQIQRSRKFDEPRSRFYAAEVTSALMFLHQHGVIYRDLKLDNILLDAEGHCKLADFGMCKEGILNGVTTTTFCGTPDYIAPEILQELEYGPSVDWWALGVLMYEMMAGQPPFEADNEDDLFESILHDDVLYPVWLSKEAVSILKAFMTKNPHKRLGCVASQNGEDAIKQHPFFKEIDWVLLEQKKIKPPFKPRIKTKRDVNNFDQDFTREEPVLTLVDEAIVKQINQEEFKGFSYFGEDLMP
Briefly: Inhibition of PRKCE (unknown origin) assessed as residual activity at 100 nM by KINOMEscan analysis relative to control.

The next assay is filed under the species Homo sapiens. The experiment in a line: Inhibition of N-terminal GST-tagged recombinant human SOS1 N879V mutant (564 to 1049 residues) expressed in Escherichia coli assessed as reduction in KRAS G12C mutant activation at 10 uM by HTRF analysis relative to control.
Assay [2] concerns the target Non-receptor tyrosine-protein kinase TYK2 (Homo sapiens) (UniProt P29597). The experiment in a line: Inhibition of TYK2 JH1 catalytic domain (unknown origin) assessed as residual activity at 100 nM by KINOMEscan analysis relative to control.
Assay [3] has as its target cAMP-dependent protein kinase catalytic subunit alpha (Homo sapiens) (UniProt P17612). Briefly: Inhibition of PKAC-alpha (unknown origin) assessed as residual activity at 100 nM by KINOMEscan analysis relative to control.
Assay [4] deals with Ribosomal protein S6 kinase alpha-1 (Homo sapiens) (UniProt Q15418). The experiment in a line: Inhibition of C-terminal RSK1 kinetic domain 2 (unknown origin) assessed as residual activity at 100 nM by KINOMEscan analysis relative to control.
In assay [5] the target is Homeodomain-interacting protein kinase 2 (Homo sapiens) (UniProt Q9H2X6). Briefly: Inhibition of HIPK2 (unknown origin) assessed as residual activity at 100 nM by KINOMEscan analysis relative to control.
Assay [6] concerns the target AP2-associated protein kinase 1 (Homo sapiens) (UniProt Q2M2I8). The experiment in a line: Inhibition of AAK1 (unknown origin) assessed as residual activity at 100 nM by KINOMEscan analysis relative to control.
Assay [7] addresses Mitogen-activated protein kinase kinase kinase 20 (Homo sapiens) (UniProt Q9NYL2). The experiment in a line: Inhibition of ZAK (unknown origin) assessed as residual activity at 100 nM by KINOMEscan analysis relative to control.
The target of assay [8] is Tyrosine-protein kinase receptor UFO (Homo sapiens) (UniProt P30530). The experiment in a line: Inhibition of AXL (unknown origin) assessed as residual activity at 100 nM by KINOMEscan analysis relative to control.
In assay [9] the target is SRSF protein kinase 1 (Homo sapiens) (UniProt Q96SB4). The experiment in a line: Inhibition of SRPK1 (unknown origin) assessed as residual activity at 100 nM by KINOMEscan analysis relative to control.
The target in assay [10] is Serine/threonine-protein kinase PAK 6 (Homo sapiens) (UniProt Q9NQU5). Briefly: Inhibition of PAK6 (unknown origin) assessed as residual activity at 100 nM by KINOMEscan analysis relative to control.
In assay [11] the target is Cyclin-dependent kinase-like 3 (Homo sapiens) (UniProt Q8IVW4). Briefly: Inhibition of CDKL3 (unknown origin) assessed as residual activity at 100 nM by KINOMEscan analysis relative to control.
In assay [12] the target is Rho-associated protein kinase 2 (Homo sapiens) (UniProt O75116). Briefly: Inhibition of ROCK2 (unknown origin) assessed as residual activity at 100 nM by KINOMEscan analysis relative to control.
For assay [13], the target named is Phosphatidylinositol 4-kinase beta (Homo sapiens) (UniProt Q9UBF8). The experiment in a line: Inhibition of PIK4CB (unknown origin) assessed as residual activity at 100 nM by KINOMEscan analysis relative to control.
The target in assay [14] is Son of sevenless homolog 1 (Homo sapiens, UniProt Q07889). Briefly: Inhibition of N-terminal His10-tagged wild-type recombinant human SOS1 catalytic domain (564 to 1049 residues) expressed in Escherichia coli assessed as reduction in KRAS G12C mutant activation preincubated for 2 mins with KRAS followed by SOS1 addition measured after 20 mins in presence of EDA-GTP-DY-647P1 by HTRF analysis. In general terms: Time-resolved FRET reads energy transfer from a long-lived donor to a nearby acceptor.
Chain of Son of sevenless homolog 1 (Q07889 whole entry, looked up, stated change not applied, the tested form may be a part): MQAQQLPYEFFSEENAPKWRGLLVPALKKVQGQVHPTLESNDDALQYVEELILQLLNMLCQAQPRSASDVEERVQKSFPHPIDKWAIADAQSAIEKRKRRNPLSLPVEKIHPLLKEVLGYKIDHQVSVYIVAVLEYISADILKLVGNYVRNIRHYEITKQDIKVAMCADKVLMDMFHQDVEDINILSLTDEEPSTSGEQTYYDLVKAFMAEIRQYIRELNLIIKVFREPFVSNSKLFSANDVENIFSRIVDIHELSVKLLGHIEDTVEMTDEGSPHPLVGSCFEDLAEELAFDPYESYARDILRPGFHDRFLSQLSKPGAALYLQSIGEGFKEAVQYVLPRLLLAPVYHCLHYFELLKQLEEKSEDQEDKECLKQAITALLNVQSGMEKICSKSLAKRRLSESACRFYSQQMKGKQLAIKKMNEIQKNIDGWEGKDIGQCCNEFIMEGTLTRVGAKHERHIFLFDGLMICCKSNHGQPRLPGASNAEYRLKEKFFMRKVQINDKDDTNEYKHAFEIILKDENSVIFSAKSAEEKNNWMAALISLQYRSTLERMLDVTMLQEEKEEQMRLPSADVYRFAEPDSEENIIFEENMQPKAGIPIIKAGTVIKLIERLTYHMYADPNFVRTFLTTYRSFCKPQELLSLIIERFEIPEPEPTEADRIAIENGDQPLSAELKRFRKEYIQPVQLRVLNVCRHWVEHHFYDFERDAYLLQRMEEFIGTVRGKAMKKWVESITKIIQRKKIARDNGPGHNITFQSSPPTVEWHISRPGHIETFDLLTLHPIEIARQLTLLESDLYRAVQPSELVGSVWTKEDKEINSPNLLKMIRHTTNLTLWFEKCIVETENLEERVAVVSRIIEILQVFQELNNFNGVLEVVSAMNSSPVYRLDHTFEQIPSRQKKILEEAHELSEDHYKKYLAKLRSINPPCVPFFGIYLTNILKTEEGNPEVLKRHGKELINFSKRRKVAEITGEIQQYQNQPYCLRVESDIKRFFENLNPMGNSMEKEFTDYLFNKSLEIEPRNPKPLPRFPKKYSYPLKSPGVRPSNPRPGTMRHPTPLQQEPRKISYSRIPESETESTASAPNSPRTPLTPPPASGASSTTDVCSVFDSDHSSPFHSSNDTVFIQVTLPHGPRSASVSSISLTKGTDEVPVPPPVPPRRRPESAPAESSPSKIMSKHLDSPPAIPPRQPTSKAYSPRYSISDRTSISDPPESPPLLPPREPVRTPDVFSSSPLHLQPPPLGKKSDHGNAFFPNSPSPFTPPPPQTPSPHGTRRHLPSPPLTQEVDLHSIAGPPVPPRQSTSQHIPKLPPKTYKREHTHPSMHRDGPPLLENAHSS

Chain of Cyclin-dependent kinase-like 3 (Homo sapiens) (Q8IVW4 whole entry, looked up): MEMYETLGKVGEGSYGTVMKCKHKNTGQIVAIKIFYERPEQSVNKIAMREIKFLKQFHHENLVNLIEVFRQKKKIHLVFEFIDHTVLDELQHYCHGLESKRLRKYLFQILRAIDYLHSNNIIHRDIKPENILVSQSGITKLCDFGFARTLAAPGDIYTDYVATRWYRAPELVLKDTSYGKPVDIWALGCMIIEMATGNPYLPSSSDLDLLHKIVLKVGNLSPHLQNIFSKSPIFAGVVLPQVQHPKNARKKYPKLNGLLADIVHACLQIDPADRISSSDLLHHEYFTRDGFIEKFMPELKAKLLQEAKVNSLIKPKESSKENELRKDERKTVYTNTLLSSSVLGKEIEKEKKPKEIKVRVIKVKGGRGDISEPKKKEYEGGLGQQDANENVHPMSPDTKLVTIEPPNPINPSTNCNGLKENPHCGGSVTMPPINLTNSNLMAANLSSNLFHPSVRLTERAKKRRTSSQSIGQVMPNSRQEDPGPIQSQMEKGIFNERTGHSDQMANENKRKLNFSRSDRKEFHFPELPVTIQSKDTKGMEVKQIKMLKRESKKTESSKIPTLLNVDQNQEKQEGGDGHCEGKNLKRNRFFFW
Chain of SRSF protein kinase 1 (Homo sapiens) (Q96SB4 whole entry): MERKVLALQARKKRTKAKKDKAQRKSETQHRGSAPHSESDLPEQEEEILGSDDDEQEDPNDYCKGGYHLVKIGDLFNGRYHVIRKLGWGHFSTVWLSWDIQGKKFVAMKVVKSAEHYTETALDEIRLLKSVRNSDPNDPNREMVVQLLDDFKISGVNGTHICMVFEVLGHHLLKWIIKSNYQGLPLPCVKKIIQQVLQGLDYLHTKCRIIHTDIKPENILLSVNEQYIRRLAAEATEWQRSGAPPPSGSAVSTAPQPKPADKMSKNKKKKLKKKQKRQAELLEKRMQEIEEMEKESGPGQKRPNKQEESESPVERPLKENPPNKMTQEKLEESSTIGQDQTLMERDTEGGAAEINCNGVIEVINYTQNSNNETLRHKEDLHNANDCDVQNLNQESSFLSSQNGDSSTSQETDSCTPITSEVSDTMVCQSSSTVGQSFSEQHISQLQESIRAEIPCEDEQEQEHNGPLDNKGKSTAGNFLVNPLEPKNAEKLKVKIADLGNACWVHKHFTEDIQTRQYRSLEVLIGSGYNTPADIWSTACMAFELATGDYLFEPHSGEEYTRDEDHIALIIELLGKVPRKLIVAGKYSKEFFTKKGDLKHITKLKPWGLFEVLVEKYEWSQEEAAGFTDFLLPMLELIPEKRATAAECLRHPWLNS
Chain of Mitogen-activated protein kinase kinase kinase 20 (Homo sapiens) (Q9NYL2 2-800 limits assumed): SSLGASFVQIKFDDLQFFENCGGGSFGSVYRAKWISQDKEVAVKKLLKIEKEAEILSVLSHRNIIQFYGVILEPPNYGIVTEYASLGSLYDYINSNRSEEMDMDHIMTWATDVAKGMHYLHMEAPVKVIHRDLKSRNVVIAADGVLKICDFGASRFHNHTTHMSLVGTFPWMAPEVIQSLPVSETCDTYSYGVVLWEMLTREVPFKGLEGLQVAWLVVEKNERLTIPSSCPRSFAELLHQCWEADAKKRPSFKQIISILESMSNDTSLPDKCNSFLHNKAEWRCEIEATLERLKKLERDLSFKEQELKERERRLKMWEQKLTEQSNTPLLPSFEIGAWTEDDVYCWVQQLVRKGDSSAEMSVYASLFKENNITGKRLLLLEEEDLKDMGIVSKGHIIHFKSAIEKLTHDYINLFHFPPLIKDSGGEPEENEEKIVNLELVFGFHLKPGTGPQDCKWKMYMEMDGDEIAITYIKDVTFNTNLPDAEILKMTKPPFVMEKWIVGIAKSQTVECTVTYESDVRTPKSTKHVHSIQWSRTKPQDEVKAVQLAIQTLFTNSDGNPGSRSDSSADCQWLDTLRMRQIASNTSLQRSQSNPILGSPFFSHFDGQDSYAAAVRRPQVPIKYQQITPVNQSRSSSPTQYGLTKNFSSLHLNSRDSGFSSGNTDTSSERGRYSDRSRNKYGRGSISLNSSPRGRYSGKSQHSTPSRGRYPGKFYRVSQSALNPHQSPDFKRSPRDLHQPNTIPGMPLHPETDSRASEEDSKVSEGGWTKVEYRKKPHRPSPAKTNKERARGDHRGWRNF
Chain of Non-receptor tyrosine-protein kinase TYK2 (Homo sapiens) (P29597 whole entry, the tested form may be a part): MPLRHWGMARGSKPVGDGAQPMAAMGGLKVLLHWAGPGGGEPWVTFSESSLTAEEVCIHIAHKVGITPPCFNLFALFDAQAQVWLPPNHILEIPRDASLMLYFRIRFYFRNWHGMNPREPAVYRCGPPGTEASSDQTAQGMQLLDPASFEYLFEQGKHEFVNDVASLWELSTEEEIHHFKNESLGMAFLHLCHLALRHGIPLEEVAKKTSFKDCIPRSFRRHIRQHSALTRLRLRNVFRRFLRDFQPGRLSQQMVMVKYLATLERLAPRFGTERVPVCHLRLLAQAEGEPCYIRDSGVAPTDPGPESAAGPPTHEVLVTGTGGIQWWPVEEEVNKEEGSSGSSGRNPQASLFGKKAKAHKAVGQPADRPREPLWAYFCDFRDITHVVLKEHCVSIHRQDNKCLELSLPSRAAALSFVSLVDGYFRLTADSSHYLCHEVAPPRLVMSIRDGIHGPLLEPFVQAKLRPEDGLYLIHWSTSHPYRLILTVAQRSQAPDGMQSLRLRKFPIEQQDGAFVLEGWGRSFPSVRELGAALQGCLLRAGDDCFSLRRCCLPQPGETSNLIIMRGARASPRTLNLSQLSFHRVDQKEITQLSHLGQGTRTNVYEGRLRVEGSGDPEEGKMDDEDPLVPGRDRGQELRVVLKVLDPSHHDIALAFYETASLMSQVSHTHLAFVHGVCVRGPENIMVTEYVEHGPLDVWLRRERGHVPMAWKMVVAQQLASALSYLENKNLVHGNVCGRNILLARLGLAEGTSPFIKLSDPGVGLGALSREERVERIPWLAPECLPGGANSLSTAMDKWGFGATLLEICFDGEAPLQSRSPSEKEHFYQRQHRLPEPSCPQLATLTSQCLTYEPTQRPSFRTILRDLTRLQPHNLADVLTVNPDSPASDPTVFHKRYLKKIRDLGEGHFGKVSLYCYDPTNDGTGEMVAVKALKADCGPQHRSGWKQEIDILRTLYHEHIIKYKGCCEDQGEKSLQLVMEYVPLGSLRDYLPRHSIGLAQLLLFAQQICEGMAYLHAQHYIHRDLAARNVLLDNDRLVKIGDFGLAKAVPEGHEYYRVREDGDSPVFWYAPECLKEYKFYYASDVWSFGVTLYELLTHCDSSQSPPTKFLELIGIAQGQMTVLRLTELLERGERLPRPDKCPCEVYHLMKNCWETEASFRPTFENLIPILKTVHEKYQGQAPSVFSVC

On to `COc1cc2ncnc(N[C@H](C)c3cccc4ccccc34)c2cc1OC`, for which the Activity in [1] is 96%; in assay [2] it was 94%; in [3], 80%; in [4], 86%; in assay [5], 93%; in assay [6], 74%. Besides, the Activity is 51% in assay [7]; 86% in [8]; 95% in [9]; 92% in [10]; 100% in [11]; 87% in assay [12]. Also, the Activity in assay [13] is 83%. Also, the inhibition in the assay listed under Homo sapiens worked out at 51%.
For the compound `COc1cc2nc(C)nc(NC(C)c3ccc(-c4cnc5n4CCC5)s3)c2cc1OC` (stereo not given), the IC50 in [14] came to 650 nM.
